Values quoted from earlier work as cited in patent publication US12605362B2, “Eletriptan hydrobromide for treatment of spinal cord injury and improvement of locomotor function” (TECHNOPHAGE, INVESTIGAÇÃO E DESENVOLVIMENTO EM …, priority 2020, dated 2026).

Details: in the presence of the selective 5-HT2 antagonists SB204741 and SB242084; cited from earlier work

In the case of `c1ccc2nc(N3CCNCC3)ccc2c1` [quipazine], the locomotor-like movements is listed as “induction in locomotor-like movements”.
